Results reported in the supplement of paper PMC10307832.

Experiments:
Experiment in all cases: relative viability (nuclei count vs DMSO), 5 days (fraction); higher = more cells survive
[1] = tested on: COR-L 105
Procedure, shortened: (§1)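 Lung cancer cell lines were pin-tool dosed in 1536-well plates on the day after seeding, with either a lone drug or a fixed anchor-drug dose plus five library-drug doses (not always all listed) in √10 steps. Nuclei were counted on 4× images after 5 days. Relative viability is the ratio of treated-well to vehicle-well nuclei counts, with each value a median of duplicate plates.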

[2] = tested on: COR-L23
Procedure, shortened: as §1

[3] = tested on: HARA
Procedure, shortened: as §1

[4] = tested on: HCC-15
Procedure, shortened: as §1

[5] = tested on: HOP-62
Procedure, shortened: as §1

[6] = tested on: NCI-H1355
Procedure, shortened: as §1

[7] = tested on: NCI-H1395
Procedure, shortened: as §1

[8] = tested on: NCI-H1734
Procedure, shortened: as §1

[9] = tested on: NCI-H1755
Procedure, shortened: as §1

[10] = tested on: NCI-H1792
Procedure, shortened: as §1

[11] = tested on: NCI-H1793
Procedure, shortened: as §1

[12] = tested on: NCI-H1993
Procedure, shortened: as §1

[13] = tested on: NCI-H2009
Procedure, shortened: as §1

[14] = tested on: NCI-H2170
Procedure, shortened: as §1

[15] = tested on: NCI-H2228
Procedure, shortened: as §1

[16] = tested on: NCI-H2347
Procedure, shortened: as §1

[17] = tested on: NCI-H358
Procedure, shortened: as §1

[18] = tested on: NCI-H647
Procedure, shortened: as §1

[19] = tested on: NCI-H838
Procedure, shortened: as §1

[20] = tested on: SK-MES-1
Procedure, shortened: as §1

[21] = tested on: UMC-11
Procedure, shortened: as §1

Q: Which results are given for `O=c1cc(N2CCOCC2)oc2c(-c3cccc4c3sc3ccccc34)cccc12` + CS(=O)(=O)CCNCc1ccc(-c2ccc3ncnc(Nc4ccc(OCc5cccc(F)c5)c(Cl)c4)c3c2)o1 [Lapatinib] (partner 2 µM)?
A: relative viability ([1]; first compound 0.01 µM): 0.384; relative viability ([1]; first compound 0.03162 µM): 0.327; relative viability ([1]; first compound 0.1 µM): 0.397; relative viability ([1]; first compound 0.3162 µM): 0.379; relative viability ([1]; first compound 1 µM): 0.412; relative viability ([2]; first compound 0.01 µM): 1.01; relative viability ([2]; first compound 0.03162 µM): 0.823; relative viability ([2]; first compound 0.1 µM): 0.924; relative viability ([2]; first compound 0.3162 µM): 0.843; relative viability ([2]; first compound 1 µM): 1; relative viability ([3]; first compound 0.01 µM): 0.547; relative viability ([3]; first compound 0.03162 µM): 0.756; relative viability ([3]; first compound 0.1 µM): 0.702; relative viability ([3]; first compound 0.3162 µM): 0.797; relative viability ([3]; first compound 1 µM): 0.665; relative viability ([4]; first compound 0.01 µM): 0.823; relative viability ([4]; first compound 0.03162 µM): 0.881; relative viability ([4]; first compound 0.1 µM): 0.999; relative viability ([4]; first compound 0.3162 µM): 0.871; relative viability ([4]; first compound 1 µM): 0.86; relative viability ([5]; first compound 0.01 µM): 0.996; relative viability ([5]; first compound 0.03162 µM): 0.856; relative viability ([5]; first compound 0.1 µM): 0.821; relative viability ([5]; first compound 0.3162 µM): 0.958; relative viability ([5]; first compound 1 µM): 1.17; relative viability ([6]; first compound 0.01 µM): 0.998; relative viability ([6]; first compound 0.03162 µM): 1; relative viability ([6]; first compound 0.3162 µM): 1.03; relative viability ([6]; first compound 1 µM): 0.963; relative viability ([7]; first compound 0.01 µM): 0.997; relative viability ([7]; first compound 0.03162 µM): 1.18; relative viability ([7]; first compound 0.1 µM): 0.826; relative viability ([7]; first compound 0.3162 µM): 1.04; relative viability ([7]; first compound 1 µM): 0.854; relative viability ([8]; first compound 0.01 µM): 1.12; relative viability ([8]; first compound 0.03162 µM): 1.03; relative viability ([8]; first compound 0.1 µM): 1.12; relative viability ([8]; first compound 0.3162 µM): 1.04; relative viability ([8]; first compound 1 µM): 0.927; relative viability ([9]; first compound 0.01 µM): 0.81; relative viability ([9]; first compound 0.03162 µM): 1.02; relative viability ([9]; first compound 0.1 µM): 1.02; relative viability ([9]; first compound 0.3162 µM): 1.04; relative viability ([9]; first compound 1 µM): 1.07; relative viability ([10]; first compound 0.01 µM): 0.884; relative viability ([10]; first compound 0.03162 µM): 0.896; relative viability ([10]; first compound 0.1 µM): 0.808; relative viability ([10]; first compound 0.3162 µM): 0.874; relative viability ([10]; first compound 1 µM): 0.828; relative viability ([11]; first compound 0.01 µM): 0.707; relative viability ([11]; first compound 0.03162 µM): 0.824; relative viability ([11]; first compound 0.1 µM): 0.656; relative viability ([11]; first compound 0.3162 µM): 0.499; relative viability ([11]; first compound 1 µM): 0.45; relative viability ([12]; first compound 0.01 µM): 0.823; relative viability ([12]; first compound 0.03162 µM): 0.911; relative viability ([12]; first compound 0.1 µM): 0.813; relative viability ([12]; first compound 0.3162 µM): 0.764; relative viability ([12]; first compound 1 µM): 0.829; relative viability ([13]; first compound 0.01 µM): 0.906; relative viability ([13]; first compound 0.03162 µM): 0.915; relative viability ([13]; first compound 0.1 µM): 0.895; relative viability ([13]; first compound 0.3162 µM): 0.94; relative viability ([13]; first compound 1 µM): 1.15; relative viability ([14]; first compound 0.01 µM): 0.241; relative viability ([14]; first compound 0.03162 µM): 0.25; relative viability ([14]; first compound 0.1 µM): 0.253; relative viability ([14]; first compound 0.3162 µM): 0.285; relative viability ([14]; first compound 1 µM): 0.274; relative viability ([15]; first compound 0.03162 µM): 0.978; relative viability ([15]; first compound 0.1 µM): 1.03; relative viability ([15]; first compound 0.3162 µM): 1.23; relative viability ([15]; first compound 1 µM): 1.19; relative viability ([16]; first compound 0.01 µM): 0.953; relative viability ([16]; first compound 0.03162 µM): 0.965; relative viability ([16]; first compound 0.1 µM): 0.93; relative viability ([16]; first compound 0.3162 µM): 0.942; relative viability ([16]; first compound 1 µM): 0.973; relative viability ([17]; first compound 0.01 µM): 0.515; relative viability ([17]; first compound 0.03162 µM): 0.478; relative viability ([17]; first compound 0.1 µM): 0.482; relative viability ([17]; first compound 0.3162 µM): 0.467; relative viability ([17]; first compound 1 µM): 0.433; relative viability ([18]; first compound 0.01 µM): 0.95; relative viability ([18]; first compound 0.03162 µM): 1.22; relative viability ([18]; first compound 0.1 µM): 1.04; relative viability ([18]; first compound 0.3162 µM): 1.22; relative viability ([18]; first compound 1 µM): 1; relative viability ([19]; first compound 0.01 µM): 1.08; relative viability ([19]; first compound 0.03162 µM): 0.915; relative viability ([19]; first compound 0.1 µM): 0.984; relative viability ([19]; first compound 0.3162 µM): 0.97; relative viability ([19]; first compound 1 µM): 0.969; relative viability ([20]; first compound 0.01 µM): 0.51; relative viability ([20]; first compound 0.03162 µM): 0.53; relative viability ([20]; first compound 0.1 µM): 0.487; relative viability ([20]; first compound 0.3162 µM): 0.453; relative viability ([20]; first compound 1 µM): 0.407; relative viability ([21]; first compound 0.01 µM): 0.997; relative viability ([21]; first compound 0.03162 µM): 1.03; relative viability ([21]; first compound 0.1 µM): 1.17; relative viability ([21]; first compound 0.3162 µM): 0.995; relative viability ([21]; first compound 1 µM): 0.951
